Source: the SangsterLogP compilation

Row | SMILES | logP
1 | NC(=O)c1ccccc1O | 1.28
2 | O=CNc1ccccc1 | 1.15
3 | CCBr | 1.61
4 | CCN(CC)N=O | 0.48
5 | c1ccnnc1 | -0.72
6 | Nc1cc[nH]c(=O)n1 | -1.73
7 | Cc1ccc2c(c1)c([N+](=O)[O-])cc[n+]2[O-] | 1.43
8 | CCCCCCC(C)=O | 2.37
9 | OCCN1CCN(CC/C=C2\c3ccccc3Sc3ccc(Cl)cc32)CC1 | 4.18
10 | NC(=O)CCCNC(=C1C=C(F)C=CC1=O)c1ccc(Cl)cc1 | 3.06
11 | CC(=O)C(C#N)=NNc1ccc(Cl)cc1 | 4.1
12 | FC(F)(F)c1ccc2cccnc2c1 | 3.02
13 | Brc1nc(Br)c(Br)[nH]1 | 1.96
14 | O=C(O)Cc1ccc(Cl)cc1 | 2.12
15 | NC1=C(Cl)C(=O)c2ccccc2C1=O | 2.12
16 | NC12CC3CC(CC(C3)C1)C2 | 2.44
17 | O=c1[nH]cc(F)c(=O)[nH]1 | -0.89
18 | Clc1ccc(-c2ccccc2)cc1 | 4.61
19 | O=C1C=C(Cl)C(=O)c2ccccc21 | 2.29
20 | CC(=O)Nc1ccc(Cl)cc1 | 2.09
21 | COc1ccc(CN(CCN(C)C)c2ccccn2)cc1 | 3.27
22 | CCCC(C)=O | 0.91
23 | Nc1cccc(Cl)c1Cl | 2.82
24 | Cc1cccc2c1c([N+](=O)[O-])cc[n+]2[O-] | 1.36
25 | NNc1ccccc1 | 1.25
26 | Cc1ccccc1N | 1.32

Row | SMILES | logP
27 | COC(=O)C(C#N)=NNc1cc(C(F)(F)F)ccc1Cl | 4.42
28 | NC(=O)Cc1ccccn1 | -0.65
29 | CCOc1cccc(OC(=O)NC)c1 | 1.75
30 | CN(C)C(=O)Nc1ccc(Cl)cc1 | 1.94
31 | Cc1cc(C)cc(O)c1 | 2.35
32 | CC1(C)SC2C(NC(=O)C(O)c3ccccc3)C(=O)N2C1C(=O)O (stereo not drawn) | 1.4
33 | N#C/C(=C\c1ccccc1)C(N)=O | 1.56
34 | O=NN1CCOCC1 | -0.44
35 | Cc1cccc(OCCN(C)C)c1 | 2.05
36 | CCCl | 1.43
37 | Cc1cn([C@H]2CC[C@@H](CO)O2)c(=O)[nH]c1=O | -0.6
38 | O=[N+]([O-])/C=C/c1ccccc1 | 2.11
39 | NC(=O)c1ccc([N+](=O)[O-])cc1 | 0.82
40 | Nc1ccccc1O | 0.62
41 | CC(=O)Nc1ccccc1C(=O)O | 1.88
42 | c1cnc2c(c1)ccc1ncccc12 | 2.51
43 | Nc1cccc(S(N)(=O)=O)c1 | -0.38
44 | CN1C(=O)NC(=O)C(C)(C2=CCCCC2)C1=O (stereo not drawn) | 1.98
45 | CI | 1.51
46 | NS(=O)(=O)c1cc2c(cc1Cl)N=CNS2(=O)=O | -0.24
47 | Oc1ccc(Cl)cc1Cl | 3.06
48 | CC(=O)c1ccc(S(=O)(=O)NC(=O)NC2CCCCC2)cc1 | 2.44
49 | COc1ccccc1NC(C)=O | 0.67
50 | CN1C(C(=O)Nc2ccccn2)=C(O)c2ccccc2S1(=O)=O | 3.06
51 | OCc1ccc(Cl)cc1 | 1.96
52 | CCCCCCCN | 2.57

Row | SMILES | logP
53 | Cc1ccccc1O | 1.95
54 | NC(=O)C1(N2CCCCC2)CCN(CCCC(=O)c2ccc(F)cc2)CC1 | 2.02
55 | [O-][n+]1cccc2ccccc21 | 0.36
56 | O=C(O)c1cccc(Cl)c1 | 2.68
57 | C#C | 0.37
58 | NC(=O)N(CCCl)N=O | 0.57
59 | CN(C)C(=O)Nc1cccc(Cl)c1 | 2
60 | Nc1ccc(C(=O)O)cc1Cl | 1.52
61 | O/N=C/c1ccccc1 | 1.75
62 | OCC(Cl)(Cl)Cl | 1.42
63 | CC(=O)c1ccc(N)cc1 | 0.83
64 | Cc1ccc(C)cc1 | 3.15
65 | CC(C)NCC(O)c1ccc([N+](=O)[O-])cc1 (stereo not drawn) | 1.28
66 | CCCCCCCCCC | 5.01
67 | O=C(O)c1cccnc1 | 0.36
68 | Oc1ncnc2[nH]ncc12 | -0.55
69 | Cc1ccc2cccc(O)c2n1 | 2.33
70 | Cc1ccc([N+](=O)[O-])cc1 | 2.37
71 | O=C(O)c1ccc(N=C=S)cc1 | 3.52
72 | Cc1cccc(O)c1 | 1.96
73 | Fc1ccc(F)cc1 | 2.13
74 | C1CCNC1 | 0.46
75 | Nc1ccc(Cl)c(Cl)c1 | 2.69
76 | CC1(C)S[C@@H]2[C@H](NC(=O)COc3ccccc3)C(=O)N2[C@H]1C(=O)O | 2.09
77 | Oc1ncnc2[nH]cnc12 | -1.11
78 | COC1C(Cl)C(Cl)C(Cl)C(Cl)C1OC (stereo not drawn) | 2.82

Row | SMILES | logP
79 | Cc1cccc2c([N+](=O)[O-])cc[n+]([O-])c12 | 1.59
80 | Cc1ccc2c([N+](=O)[O-])cc[n+]([O-])c2c1 | 1.42
81 | N#Cc1ccc([N+](=O)[O-])cc1 | 1.19
82 | Nc1nc(N)c2nc(-c3ccccc3)c(N)nc2n1 | 0.98
83 | O=C(CCNNC(=O)c1ccncc1)NCc1ccccc1 | 0.87
84 | CCCN(CCC)S(=O)(=O)c1ccc(C(=O)O)cc1 | 3.21
85 | CC(C)n1nnc2ccccc21 | 1.98
86 | COc1ccc2c3c1O[C@H]1[C@@H](O)C=C[C@H]4[C@@H](C2)N(C)CC[C@@]341 | 1.19
87 | CCOC(=O)Cc1ccccc1 | 2.28
88 | Nc1ccc(C(=O)O)c([N+](=O)[O-])c1 | 0.38
89 | O=C(c1ccccc1)c1ccc(O)cc1 | 3.07
90 | CCCCCN | 1.49
91 | CCN(C)C | 0.7
92 | N[C@@H](Cc1ccccc1)C(=O)O | -1.38
93 | O=C(O)c1ccccc1Cl | 2.05
94 | COC(=O)C(C#N)=NNc1ccc(S(=O)(=O)C(F)(F)F)cc1 | 4.22
95 | O=[N+]([O-])/C=C/c1cccc(O)c1 | 2.07
96 | CNCc1ccccc1 | 1.52
97 | Cc1cn([C@H]2C[C@H](F)[C@@H](CO)O2)c(=O)[nH]c1=O | -0.28
98 | N#Cc1ccc(O)cc1 | 1.6
99 | CC1=c2[nH]c3c(c2CCN1)C=CC(=O)C=3 | 2.19
100 | CCOC(=O)c1ccc(N)cc1 | 1.86
101 | NC(N)=S | -1.08
102 | N=c1[nH]c(=O)c2ncn([C@@H]3C=C[C@@H](CO)O3)c2[nH]1 | -1.21
103 | CCCCNCCC | 2.12
104 | Cc1cn([C@H]2C[C@H](O)[C@@H](CO)O2)c(=O)[nH]c1=O | -0.93

Row | SMILES | logP
105 | [O-][n+]1ccc(Cl)c2ccccc21 | 1.08
106 | CNc1ccc(S(N)(=O)=O)cc1 | 0.08
107 | CC(=O)S[C@@H]1CC2=CC(=O)CC[C@]2(C)[C@H]2CC[C@@]3(C)[C@@H](CC[C@@]34CCC(=O)O4)[C@H]12 | 2.78
108 | Cc1ccc(N(C)C)cc1 | 2.81
109 | OC[C@H]1O[C@@H](n2cnc3c(O)ncnc32)[C@H](O)[C@@H]1O | -2.1
110 | CC(=O)c1ccc(Cl)cc1 | 2.32
111 | NC(=O)c1cccnc1 | -0.37
112 | CCC(Cc1ccccn1)C(N)=O (stereo not drawn) | -0.01
113 | CC(C)(C)[N+](=O)[O-] | 1.17
114 | CC(N)C(=O)O (racemic) | -2.96
115 | O=C(O)CCCCn1nnc2ccccc21 | 0.48
116 | Oc1ccc(Br)cc1Br | 3.22
117 | Oc1c(Cl)cc(Cl)c(Cl)c1Cl | 4.45
118 | c1ccc2cc3ccccc3cc2c1 | 4.45
119 | O=C(O)c1ccc(Oc2ccccc2)cc1 | 3.91
120 | Cc1ccc(O)c(C)c1 | 2.3
121 | OCCCCCc1ccncc1 | 1.39
122 | NS(=O)(=O)c1ccc(O)cc1 | 0.06
123 | Oc1cccc(O)c1 | 0.8
124 | COc1ccccc1CO | 1.13
125 | BrCBr | 1.7
126 | CCCCCl | 2.64
127 | CC(CN1CCOCC1)C(C(=O)N1CCCC1)(c1ccccc1)c1ccccc1 (stereo not drawn) | 3.61
128 | CC(C)CN | 0.73
129 | CC(C)[C@H](N)C(=O)O | -2.26
130 | CNC(=O)Oc1cccc(C(C)=O)c1 | 0.9

Row | SMILES | logP
131 | COCc1ccccc1 | 1.92
132 | CC(C(=O)O)c1ccc(-c2ccccc2)c(F)c1 (stereo not drawn) | 4.16
133 | CNC(=O)Oc1cccc(I)c1 | 2.52
134 | O=C1CN(/N=C/c2ccc([N+](=O)[O-])o2)C(=O)N1 | -0.47
135 | O=C1CN=C(c2ccccc2)c2cc(Cl)ccc2N1CC1CC1 | 3.73
136 | Cc1cccc(Nc2ccccc2C(=O)O)c1C | 5.12
137 | CC=CC | 2.33
138 | Oc1ccccc1I | 2.65
139 | Nc1ccncc1 | 0.26
140 | O=C(O)COC1Cc2ccccc2C1 | 2.33
141 | CC(=O)OCC1=C(C(=O)O)N2C(=O)[C@@H](NC(=O)Cc3cccs3)[C@H]2SC1 | 0
142 | Oc1cccc(C(F)(F)F)c1 | 2.95
143 | CNC(=O)Oc1ccc(C(C)C)c(C)c1 | 3.11
144 | Nc1ccc(C(=O)O)cc1Br | 1.4
145 | Nc1ccn([C@H]2C[C@H](O)[C@@H](CO)O2)c(=O)n1 | -1.77
146 | CC(C)N(N=O)C(C)C | 1.38
147 | Oc1ccccc1O | 0.88
148 | Nc1ccc(Cl)cc1 | 1.83
149 | O=[N+]([O-])c1cccc2c1ccc[n+]2[O-] | 0.49
150 | NC(=O)CCCn1nnc2ccccc21 | 0.37
151 | O=C1CC2OCC=C3CN4CC[C@]56c7ccccc7N1C5[C@H]2[C@H]3C[C@H]46 (stereo partly drawn) | 1.93
152 | CC(C)N | 0.26
153 | Cc1ccc(C)c(O)c1 | 2.33
154 | Oc1ccccn1 | -0.58
155 | CC(=O)C(C#N)=NNc1cccc(Cl)c1 | 3.9
156 | O=C(O)c1ccccn1 | 0.72

Row | SMILES | logP
157 | O=C(O)Cc1cccc(I)c1 | 2.62
158 | O=C1CNC(=O)N1 | -1.69
159 | O=C(O)c1ccccc1Nc1ccccc1 | 4.36
160 | Nc1ccccn1 | 0.48
161 | CN/C(=C\[N+](=O)[O-])NCCSCc1ccc(CN(C)C)o1 | 0.27
162 | Nc1nc(N)c2ncn([C@H]3C[C@H](F)[C@@H](CO)O3)c2n1 | 0.05
163 | CC(=O)c1ccc(O)cc1 | 1.35
164 | O=C(O)c1ccccc1O | 2.26
165 | NS(=O)(=O)c1cccc(Cl)c1 | 1.29
166 | O=C(O)c1ncccc1O | -1.27
167 | Cc1cc2ccccc2[nH]1 | 2.53
168 | Clc1ccc(Cl)cc1 | 3.44
169 | O=[N+]([O-])c1cncn1CCN1CCOCC1 | 0.07
170 | CCc1ccc(S(N)(=O)=O)cc1 | 1.31
171 | CCc1ccc(OC(=O)NC)cc1 | 2.23
172 | Cc1cccc(S(N)(=O)=O)c1 | 0.85
173 | COc1cccc([N+](=O)[O-])c1 | 2.16
174 | Cn1c(CO)cnc1[N+](=O)[O-] | -0.03
175 | N#Cc1cccc(OCC(=O)O)c1 | 0.95
176 | COc1cccc(C=O)c1O | 1.37
177 | CBr | 1.19
178 | O=C(O)CSc1ccccc1 | 1.91
